In test [1] the target is T1, Prostaglandin G/H synthase 1 (Ovis aries, UniProt P05979).
T1 sequence (P05979 whole entry): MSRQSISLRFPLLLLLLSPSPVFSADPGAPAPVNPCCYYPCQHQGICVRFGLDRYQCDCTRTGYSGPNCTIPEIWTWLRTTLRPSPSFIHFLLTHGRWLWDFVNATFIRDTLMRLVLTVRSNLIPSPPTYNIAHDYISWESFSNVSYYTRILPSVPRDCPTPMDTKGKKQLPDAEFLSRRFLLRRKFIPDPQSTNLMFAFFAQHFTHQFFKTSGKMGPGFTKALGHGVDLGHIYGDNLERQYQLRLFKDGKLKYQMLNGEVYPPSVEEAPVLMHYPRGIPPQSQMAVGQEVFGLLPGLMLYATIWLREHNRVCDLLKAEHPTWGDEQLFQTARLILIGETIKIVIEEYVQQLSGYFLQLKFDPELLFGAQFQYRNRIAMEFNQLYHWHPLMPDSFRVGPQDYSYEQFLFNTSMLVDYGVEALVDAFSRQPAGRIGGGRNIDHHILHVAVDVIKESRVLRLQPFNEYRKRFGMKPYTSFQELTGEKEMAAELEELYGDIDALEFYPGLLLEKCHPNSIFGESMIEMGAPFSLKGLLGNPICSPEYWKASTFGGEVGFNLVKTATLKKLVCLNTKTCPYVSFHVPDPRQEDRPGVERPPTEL
Description: Inhibition of ovine COX1 by chemiluminescence assay

The next test is filed under the species Ovis aries. The test can be described thus: Selectivity index, ratio of IC50 for ovine COX1 to IC50 for ovine COX2.

With `CS(=O)(=O)c1ccc(C2Sc3ccccc3C(=O)N2c2ccc(F)cc2)cc1` (configuration not stated), it took 13 µM to reach half-maximal inhibition in test [1] (IC50).

In the case of `CS(=O)(=O)c1ccc(C2Sc3ccccc3C(=O)N2Cc2ccccc2)cc1` (configuration not stated), in test [1], the IC50 – broadly, the concentration that gives 50% inhibition – was 15.8 µM. Still for that read-out and setting: the same measure for `COc1ccc(N2C(=O)c3ccccc3SC2c2ccc(S(C)(=O)=O)cc2)cc1` (configuration not stated): 14.8 µM; for `CS(=O)(=O)c1ccc(C2Sc3ccccc3C(=O)N2c2ccccc2)cc1` (configuration not stated): 16.5 µM. The same measure, in the same setting: with `CS(=O)(=O)c1ccc(C2Sc3ccccc3C(=O)N2CCc2ccccc2)cc1` (configuration not stated) the figure was 15.9 µM.

As to `Cc1ccc(N2C(=O)c3ccccc3SC2c2ccc(S(C)(=O)=O)cc2)cc1` (configuration not stated), the Ratio IC50 in the test filed under Ovis aries came out at 252. In test [1], this compound showed a concentration for half-maximal inhibition (IC50) of 16.1 µM.

These data come from ChEMBL document CHEMBL1152429, “Design and synthesis of new 1,3-benzthiazinan-4-one derivatives as selective cyclooxygenase (COX-2) inhibitors” (Bioorg Med Chem, 2009).
